Data published in ChEMBL document CHEMBL3603837, “Indole Glucocorticoid Receptor Antagonists Active in a Model of Dyslipidemia Act via a Unique Association with an Agonist Binding Site” (J Med Chem, 2015).

Tests used:
Androgen receptor = biological target: T1, Androgen receptor (Homo sapiens, UniProt P10275); assay: biochemical
T1 sequence (P10275 whole entry): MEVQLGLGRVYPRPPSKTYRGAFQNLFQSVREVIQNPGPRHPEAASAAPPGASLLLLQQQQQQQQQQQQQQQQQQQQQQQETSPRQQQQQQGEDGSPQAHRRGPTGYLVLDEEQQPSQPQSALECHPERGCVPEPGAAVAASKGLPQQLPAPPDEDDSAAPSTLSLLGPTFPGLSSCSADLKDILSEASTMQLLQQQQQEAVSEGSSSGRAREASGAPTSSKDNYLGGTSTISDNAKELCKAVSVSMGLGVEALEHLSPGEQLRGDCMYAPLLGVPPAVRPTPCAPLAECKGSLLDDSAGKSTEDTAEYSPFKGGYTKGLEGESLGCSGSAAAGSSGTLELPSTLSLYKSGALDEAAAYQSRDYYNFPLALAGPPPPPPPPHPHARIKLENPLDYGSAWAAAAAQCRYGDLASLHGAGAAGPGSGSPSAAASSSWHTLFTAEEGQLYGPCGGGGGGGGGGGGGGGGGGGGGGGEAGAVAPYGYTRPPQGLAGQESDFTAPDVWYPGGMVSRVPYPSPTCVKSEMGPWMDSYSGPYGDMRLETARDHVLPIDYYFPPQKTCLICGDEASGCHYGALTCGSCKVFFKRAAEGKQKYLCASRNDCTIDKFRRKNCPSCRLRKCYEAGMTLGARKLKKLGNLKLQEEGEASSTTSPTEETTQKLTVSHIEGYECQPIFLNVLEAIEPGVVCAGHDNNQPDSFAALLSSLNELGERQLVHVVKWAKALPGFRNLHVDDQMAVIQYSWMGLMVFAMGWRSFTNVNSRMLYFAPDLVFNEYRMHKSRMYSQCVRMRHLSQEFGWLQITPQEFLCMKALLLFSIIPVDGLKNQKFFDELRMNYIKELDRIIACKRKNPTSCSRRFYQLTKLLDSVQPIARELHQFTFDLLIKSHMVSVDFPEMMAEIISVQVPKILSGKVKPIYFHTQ
Description: Displacement of [3H]-methyltrienolone from human androgen receptor expressed in HEK293 cells by scintillation counting based radioligand competition binding assay

Progesterone receptor = biological target: T2, Progesterone receptor (Homo sapiens, UniProt P06401); assay: Displacement of [3H]-methyltrienolone from human progesterone receptor expressed in HEK293 cells by scintillation counting based radioligand competition binding assay
T2 sequence (P06401 whole entry): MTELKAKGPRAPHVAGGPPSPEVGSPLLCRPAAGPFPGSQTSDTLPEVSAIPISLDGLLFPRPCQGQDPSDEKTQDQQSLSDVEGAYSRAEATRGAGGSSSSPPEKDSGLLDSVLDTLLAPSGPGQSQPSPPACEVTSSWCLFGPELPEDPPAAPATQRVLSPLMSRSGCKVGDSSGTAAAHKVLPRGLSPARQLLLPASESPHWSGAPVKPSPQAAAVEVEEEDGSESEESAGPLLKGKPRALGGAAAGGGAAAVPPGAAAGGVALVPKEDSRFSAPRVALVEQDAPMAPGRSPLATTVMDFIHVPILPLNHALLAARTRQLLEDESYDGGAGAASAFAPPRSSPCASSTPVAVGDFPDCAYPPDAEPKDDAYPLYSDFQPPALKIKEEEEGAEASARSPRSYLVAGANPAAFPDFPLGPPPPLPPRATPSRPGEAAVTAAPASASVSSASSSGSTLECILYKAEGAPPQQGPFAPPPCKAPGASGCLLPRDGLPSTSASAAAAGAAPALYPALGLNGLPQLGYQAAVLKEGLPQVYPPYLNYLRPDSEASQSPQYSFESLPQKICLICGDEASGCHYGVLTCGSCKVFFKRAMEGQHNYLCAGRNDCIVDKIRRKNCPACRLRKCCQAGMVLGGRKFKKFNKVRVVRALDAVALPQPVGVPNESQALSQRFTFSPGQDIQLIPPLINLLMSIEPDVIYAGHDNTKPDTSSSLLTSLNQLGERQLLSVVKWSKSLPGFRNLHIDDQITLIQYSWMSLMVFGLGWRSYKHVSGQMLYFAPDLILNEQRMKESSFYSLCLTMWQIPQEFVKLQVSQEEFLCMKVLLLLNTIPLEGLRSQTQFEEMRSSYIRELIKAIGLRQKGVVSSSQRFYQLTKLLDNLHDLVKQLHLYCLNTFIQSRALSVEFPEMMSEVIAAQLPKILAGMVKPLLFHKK

[1] = biological target: T3, Mineralocorticoid receptor (Homo sapiens, UniProt P08235); assay: biochemical
T3 sequence (P08235 whole entry): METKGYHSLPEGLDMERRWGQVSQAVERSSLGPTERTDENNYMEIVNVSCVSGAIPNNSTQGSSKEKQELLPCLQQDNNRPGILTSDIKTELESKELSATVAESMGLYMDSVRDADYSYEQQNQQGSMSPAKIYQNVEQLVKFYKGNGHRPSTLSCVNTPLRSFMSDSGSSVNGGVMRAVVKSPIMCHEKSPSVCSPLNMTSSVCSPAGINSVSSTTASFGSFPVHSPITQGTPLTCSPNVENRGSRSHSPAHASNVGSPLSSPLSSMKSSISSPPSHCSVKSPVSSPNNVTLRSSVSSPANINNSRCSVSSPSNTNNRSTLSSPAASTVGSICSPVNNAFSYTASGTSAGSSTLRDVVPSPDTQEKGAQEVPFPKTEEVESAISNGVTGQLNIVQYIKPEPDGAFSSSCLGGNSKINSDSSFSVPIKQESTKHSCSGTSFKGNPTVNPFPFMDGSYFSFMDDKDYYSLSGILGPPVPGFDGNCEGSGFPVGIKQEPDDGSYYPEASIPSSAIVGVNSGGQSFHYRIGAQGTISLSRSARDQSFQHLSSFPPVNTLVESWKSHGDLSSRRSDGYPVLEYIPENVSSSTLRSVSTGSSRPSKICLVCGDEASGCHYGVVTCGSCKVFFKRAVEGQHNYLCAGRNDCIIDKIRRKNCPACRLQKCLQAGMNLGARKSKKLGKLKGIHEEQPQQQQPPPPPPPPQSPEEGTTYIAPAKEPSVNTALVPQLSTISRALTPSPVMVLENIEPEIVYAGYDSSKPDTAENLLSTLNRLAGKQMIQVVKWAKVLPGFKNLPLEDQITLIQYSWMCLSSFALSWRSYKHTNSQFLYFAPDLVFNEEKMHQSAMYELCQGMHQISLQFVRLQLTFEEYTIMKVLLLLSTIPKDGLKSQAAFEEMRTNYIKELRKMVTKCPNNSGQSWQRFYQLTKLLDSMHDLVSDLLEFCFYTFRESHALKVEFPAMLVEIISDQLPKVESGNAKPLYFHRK
Description: Displacement of [3H]-aldosterone from human mineralocorticoid receptor expressed in HEK293 cells by scintillation counting based radioligand competition binding assay

Compound	Ki (Androgen receptor)	Ki (Progesterone receptor)	Ki [1]
COc1cc(F)ccc1-c1c(C)[nH]c2c(NS(C)(=O)=O)cc(F)cc12	1.13 µM	0.0205 µM	0.0447 µM
COc1cc(NS(C)(=O)=O)c2[nH]c(C)c(-c3ccccc3)c2c1	4.06 µM	3.94 µM	3.89 µM
COc1cc(NS(C)(=O)=O)c2[nH]c(C)c(-c3cc(F)ccc3OC)c2c1	1.12 µM	0.0223 µM	0.0384 µM
COc1ccc(F)cc1-c1c(-c2ccccc2)[nH]c2c(NS(C)(=O)=O)cccc12	0.905 µM	0.0442 µM	3.92 µM
COc1ccc(Cl)cc1-c1c[nH]c2c(NS(C)(=O)=O)cccc12	0.697 µM	0.233 µM	4.47 µM
COc1cc(F)ccc1-c1c(CN(C)Cc2ccccc2)[nH]c2c(N)cc(F)cc12	4.14 µM	4.19 µM	2.12 µM
COc1cc(F)ccc1-c1c(Cc2ccccc2)[nH]c2c(NS(C)(=O)=O)cc(C(C)C)cc12	0.684 µM	4 µM	4.25 µM

Compounds with a lower Ki (Androgen receptor), results first:

Ki (Androgen receptor)	Ki (Progesterone receptor)	Ki [1]	Compound
0.496 µM	0.029 µM	0.225 µM	CS(=O)(=O)Nc1cccc2c(-c3ccc(F)cc3)c[nH]c12
0.355 µM	0.104 µM	0.952 µM	CS(=O)(=O)Nc1cccc2cc[nH]c12
0.401 µM	0.086 µM	–	COc1ccccc1-c1c[nH]c2c(NS(C)(=O)=O)cccc12
0.232 µM	0.0642 µM	1.58 µM	COc1cc(F)ccc1-c1c(CN(C)Cc2ccccc2)[nH]c2c(NS(C)(=O)=O)cc(C(C)C)cc12
0.231 µM	0.253 µM	3.88 µM	COc1cc(F)ccc1-c1c(CN(C)Cc2ccccc2)[nH]c2c(NS(C)(=O)=O)cc(C(C)(C)C)cc12
0.091 µM	0.00551 µM	0.0021 µM	CS(=O)(=O)Nc1cccc2c(-c3cccc(Cl)c3)c[nH]c12
